Source: the supplement of paper PMC10307832

Tests used:
Test in all cases: relative viability (nuclei count vs DMSO), 5 days (fraction); higher = more cells survive
Linsitinib + Crizotinib = compound: C[C@]1(O)C[C@@H](c2nc(-c3ccc4ccc(-c5ccccc5)nc4c3)c3c(N)nccn32)C1 [Linsitinib] + C[C@@H](Oc1cc(-c2cnn(C3CCNCC3)c2)cnc1N)c1c(Cl)ccc(F)c1Cl [Crizotinib] (partner 1 µM)
In short: (§1)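 Relative viability divides the nuclei count in treated wells by that in vehicle wells. Lung cancer cell lines were seeded in 1536-well plates, dosed by pin tool the next day, and fixed and stained after 5 days in one step with final 0.05% Triton X-100, 1% formaldehyde and 1 ug/ml Hoechst. Dosing was a single drug or a fixed anchor-drug dose plus five library-drug doses (not always all listed) in √10 steps, and values are medians of duplicate plates imaged at 4×.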

Ispinesib + Trametinib = compound: Cc1ccc(C(=O)N(CCCN)[C@@H](c2nc3cc(Cl)ccc3c(=O)n2Cc2ccccc2)C(C)C)cc1 [Ispinesib] + CC(=O)Nc1cccc(-n2c(=O)n(C3CC3)c(=O)c3c(Nc4ccc(I)cc4F)n(C)c(=O)c(C)c32)c1 [Trametinib] (partner 0.02 µM)
In short: as §1

Ispinesib + Decitabine = compound: Cc1ccc(C(=O)N(CCCN)[C@@H](c2nc3cc(Cl)ccc3c(=O)n2Cc2ccccc2)C(C)C)cc1 [Ispinesib] + Nc1ncn([C@H]2C[C@H](O)[C@@H](CO)O2)c(=O)n1 [Decitabine] (partner 2 µM)
In short: as §1

Ispinesib + Pictilisib = compound: Cc1ccc(C(=O)N(CCCN)[C@@H](c2nc3cc(Cl)ccc3c(=O)n2Cc2ccccc2)C(C)C)cc1 [Ispinesib] + CS(=O)(=O)N1CCN(Cc2cc3nc(-c4cccc5[nH]ncc45)nc(N4CCOCC4)c3s2)CC1 [Pictilisib] (partner 1 µM)
In short: as §1

Cell Line	relative viability (Linsitinib + Crizotinib; first compound 0.01 µM)	relative viability (Linsitinib + Crizotinib; first compound 0.03162 µM)	relative viability (Linsitinib + Crizotinib; first compound 0.1 µM)	relative viability (Linsitinib + Crizotinib; first compound 1 µM)	relative viability (Ispinesib + Trametinib; first compound 0.001 µM)	relative viability (Ispinesib + Trametinib; first compound 0.003162 µM)	relative viability (Ispinesib + Trametinib; first compound 0.01 µM)	relative viability (Ispinesib + Trametinib; first compound 0.03162 µM)	relative viability (Ispinesib + Trametinib; first compound 0.1 µM)	relative viability (Ispinesib + Decitabine; first compound 0.001 µM)	relative viability (Ispinesib + Decitabine; first compound 0.003162 µM)	relative viability (Ispinesib + Decitabine; first compound 0.01 µM)	relative viability (Ispinesib + Decitabine; first compound 0.03162 µM)	relative viability (Ispinesib + Decitabine; first compound 0.1 µM)	relative viability (Ispinesib + Pictilisib; first compound 0.001 µM)	relative viability (Ispinesib + Pictilisib; first compound 0.003162 µM)	relative viability (Ispinesib + Pictilisib; first compound 0.01 µM)	relative viability (Ispinesib + Pictilisib; first compound 0.03162 µM)	relative viability (Ispinesib + Pictilisib; first compound 0.1 µM)	relative viability (Linsitinib + Crizotinib; first compound 0.3162 µM)
NCI-H650	0.736	0.907	0.857	0.703	0.969	1.07	1.03	0.828	0.779	0.289	0.325	0.328	0.33	0.306	0.861	0.99	0.868	0.827	0.402	
IA-LM	0.763	0.775	0.736	0.496											0.484	0.352	0.278	0.173	0.121	0.656
A-427	0.872	0.779	1.04	0.726	0.721	0.811	0.745	0.463	0.226	0.578	0.539	0.587	0.395	0.3	0.805	0.829	0.891	0.388	0.177	
NCI-H2347	0.705	0.84	0.715	0.669	0.299	0.23	0.294	0.343	0.252	0.625	0.618	0.597	0.578	0.589	0.798	0.92	0.592	0.523	0.419	0.589
NCI-H1793					0.47	0.433	0.412	0.421	0.244	0.411	0.473	0.624	0.524	0.229	0.331	0.404	0.39	0.217	0.124	
NCI-H1651	0.874	0.93	0.803	0.862	0.836	0.896	0.887	0.882	0.831	0.582	0.688	0.67	0.559	0.508	0.623	0.66	0.8	0.491	0.18	0.735
HCC-78	0.298	0.356	0.278	0.265	1.04	0.869	1.2	0.493	0.513	0.68	0.732	0.825	0.577	0.578	0.223	0.198	0.235		0.247	0.338
NCI-H23	0.416	0.445	0.591	0.451	0.372	0.472	0.32	0.358	0.208	0.27	0.326	0.304	0.309	0.213	0.441	0.479	0.557	0.251	0.189	0.351
LOU-NH91	0.756	0.763	0.743	0.644	0.772	0.774	0.814	0.725	0.309	0.795	0.852	0.858	0.786	0.342	0.482	0.54	0.508	0.427	0.256	0.735
LXF-289	0.789	0.885	0.807	0.792	0.667	0.729	0.762	0.629	0.606	0.359	0.388	0.387	0.404	0.349	0.846	0.812	0.909	0.709	0.123	0.671
NCI-H460	0.799	0.837	0.961	0.714	0.225	0.207	0.218	0.0463	0.0454	0.533	0.516	0.699	0.146	0.0478	0.415	0.425	0.449	0.229	0.0764	0.745
NCI-H1792	1.01	0.96	0.951	0.746	0.42	0.463	0.515	0.398	0.117	0.548	0.546	0.725	0.484	0.238	0.289	0.303	0.254	0.177	0.302	0.764
EMC-BAC-2	0.8	0.738	0.696	0.688	0.846	0.966	0.965	0.624	0.312	0.933	1.13	1.04	0.775	0.47	0.553	0.568	0.539	0.413	0.239	0.517
CAL-12T	0.641	0.596	0.625	0.467	0.353	0.315	0.28	0.294	0.215						0.413	0.545	0.523	0.295	0.172	0.556
ChaGo-K-1	1.08	1.07	1.14	1.04	0.903	0.999	1.06	0.992	0.895	0.463	0.56	0.494	0.574	0.521	0.895	1.3	0.659	0.397	0.312	0.812
COR-L 105	0.938	0.7	0.845	0.471	0.466	0.424	0.426	0.363	0.377	0.595	0.662	0.67	0.43	0.337	0.448	0.393	0.257	0.243	0.258	0.631
NCI-H1944	1.05	1.21	1.17	0.892	0.431	0.408	0.36	0.383	0.334	0.416	0.412	0.467	0.417	0.443	0.402	0.398	0.341	0.288	0.219	0.926
NCI-H2009	0.988	1.04	1.06	1.04	0.28	0.271	0.287	0.203	0.151	0.447	0.365	0.383	0.366	0.244	0.782	0.804	0.58	0.0875	0.173	0.975
NCI-H522					0.814	0.879	0.913	0.788	0.646	0.662	0.649	0.751	0.687	0.673						

Cell Line	relative viability (Linsitinib + Crizotinib; first compound 0.01 µM)	relative viability (Linsitinib + Crizotinib; first compound 0.03162 µM)	relative viability (Linsitinib + Crizotinib; first compound 0.1 µM)	relative viability (Linsitinib + Crizotinib; first compound 1 µM)	relative viability (Ispinesib + Trametinib; first compound 0.001 µM)	relative viability (Ispinesib + Trametinib; first compound 0.003162 µM)	relative viability (Ispinesib + Trametinib; first compound 0.01 µM)	relative viability (Ispinesib + Trametinib; first compound 0.03162 µM)	relative viability (Ispinesib + Trametinib; first compound 0.1 µM)	relative viability (Ispinesib + Decitabine; first compound 0.001 µM)	relative viability (Ispinesib + Decitabine; first compound 0.003162 µM)	relative viability (Ispinesib + Decitabine; first compound 0.01 µM)	relative viability (Ispinesib + Decitabine; first compound 0.03162 µM)	relative viability (Ispinesib + Decitabine; first compound 0.1 µM)	relative viability (Ispinesib + Pictilisib; first compound 0.001 µM)	relative viability (Ispinesib + Pictilisib; first compound 0.003162 µM)	relative viability (Ispinesib + Pictilisib; first compound 0.01 µM)	relative viability (Ispinesib + Pictilisib; first compound 0.03162 µM)	relative viability (Ispinesib + Pictilisib; first compound 0.1 µM)	relative viability (Linsitinib + Crizotinib; first compound 0.3162 µM)
NCI-H441	0.872	0.902	0.76	0.579	0.47	0.458	0.284	0.255	0.212	0.216	0.139	0.192	0.18	0.193	0.441	0.505	0.468	0.145	0.209	0.552
NCI-H1437	0.897	0.75	0.993	0.972	0.557	0.541	0.688	0.614	0.144	0.552	0.605	0.677	0.652	0.228	0.46	0.48	0.477	0.393	0.207	0.853
PC-14	0.837	0.914	0.916	0.794	0.788	0.707	0.282	0.0652	0.101	0.21	0.18	0.0598	0.0507	0.0665	0.796	0.668	0.78	0.232	0.169	0.869
LCLC-103H	0.991	0.973	1.01	0.932	0.724	0.7	0.723	0.667	0.654	0.757	0.741	0.739	0.68	0.6	0.6	0.624	0.682	0.495	0.572	0.924
COR-L23	0.611	0.672	0.742	0.658	0.611	0.565	0.376	0.103	0.168	0.447	0.388	0.454	0.176	0.141	0.895	0.863	0.908	0.181	0.235	0.556
H3255	0.84	0.817	0.95	0.813	0.621	0.711	0.622	0.448	0.328	0.573	0.629	0.622	0.495	0.41	0.456	0.431	0.471	0.335	0.345	0.773
NCI-H2126	0.972	1.06	0.988	0.903	0.542	0.574	0.58	0.589	0.508	0.541	0.536	0.57	0.551	0.559	0.505	0.56	0.563	0.476	0.39	0.841
ABC-1	1.26	1.01	1.01	0.905						0.997	1.12	1.35		0.509	0.656	0.678	0.692	0.301	0.339	0.614
EBC-1	0.168	0.173	0.212	0.193											0.448	0.38	0.328	0.179	0.191	0.197
NCI-H1703	0.585		0.595	0.35											0.248	0.218	0.181	0.123	0.136	0.93
NCI-H1395					1.13	1.1	1.06	0.682	0.409	0.734	0.746	0.577	0.467	0.412	0.604	0.663	0.63	0.368	0.383	
NCI-H1563	0.886	0.847	0.852	0.955											0.68	0.723	0.533	0.54	0.528	0.818
NCI-H2228	0.411	0.419	0.399	0.398	0.615	0.496	0.415	0.263	0.28						0.483	0.554	0.469	0.319	0.264	0.298
NCI-H1299	0.96	0.975	1	0.931											0.951	0.727	0.789	0.37	0.152	0.949
A549	0.685	0.771	0.684	0.473						0.149	0.254	0.326	0.315	0.196	0.674	0.525	0.831	0.173	0.158	0.623
NCI-H2342					0.892	0.819	0.896	0.797	0.722	0.821	0.756	0.76	0.743	0.78						
SW 900					0.914	0.947	1.02	0.924	0.326	0.388	0.344	0.43	0.396	0.311						
NCI-H1648					0.47	0.559	0.479	0.583	0.496	0.532	0.484	0.474	0.614	0.343						
Calu-6	0.79	0.701	0.837	0.708											1.09	0.727	0.186	0.113	0.155	0.717
